{"source": "paper PMC8453901", "about": "“GLPG1205, a GPR84 Modulator: Safety, Pharmacokinetics, and Pharmacodynamics in Healthy Subjects” (Clinical Pharmacology in Drug Development, 2021)", "key": {"[1]": {"test_system": "CYP1A2", "set-up": "method as in data on file at Galapagos", "conditions": "in vitro; ref data on file at Galapagos; cited from earlier work"}, "[2]": {"test": "Study 2 part 1: effect of aging on pharmacokinetics, 50 mg once daily for 14 days", "assay_type": "in vivo, human", "conditions": "for Tmax / Cmax / AUC(0-t) / concentration at 24 h / AUC(0-inf) / half-life: male, human, plasma, oral, 50 mg; for AUC(0-t): read-out: AUC0–24h; for concentration at 24 h: read-out: C24h; for half-life: read-out: t1/2,λz (converted)", "experimental": "(§1) During study 2, GLPG1205 50 mg or matching placebo was administered as capsules in the morning 30 minutes after the start of a standard breakfast. Subjects were kept in‐house from the evening of day –1 to ≈26 hours after the first dose (day 2), and from the evening of day 13 until day 15. Administration of the study drug was performed daily at the clinical pharmacology unit. Subjects returned for a follow‐up visit at day 35.\n(§2) In part 1, 24 healthy male subjects were matched into 3 cohorts based on body weight: Cohort A comprised 8 subjects aged 65–74 years, inclusive; cohort B comprised 8 subjects aged ≥75 years (1:1 weight matched with cohort A subjects [± 5 kg]); and cohort C comprised 8 subjects aged 18 to 50 years, inclusive (1:1 weight matched with cohort A subjects [± 5 kg]). All cohorts received GLPG1205 50 mg once daily or matching placebo, in a 3:1 ratio, for 14 days. In the open‐label second part of study 2, 8 subjects (cohort D) aged 65 to 74 years, inclusive, were included to characterize the PK profile after a loading dose of GLPG1205 250 mg on day 1 followed by multiple doses of GLPG1205 50 mg once daily from day 2 to day 14.\n(§3) In the SAD part of study 1, blood samples (2 mL) for PK assessments were obtained before dosing and at multiple time points on the day of study drug administration (before dosing and 0.5, 1, 2, 4, 6, 8, and 12 hours after dosing) and at 24, 48, and 72 hours after dosing. The predose sample for the next dose level was also used in PK analysis (168 hours after dosing). […] In the MAD part of study 1, blood samples (2 mL) were obtained on days 1, 2, 4, 5, 6, 8, 10, 12, 14, 15, 16, 17, and 18 and at follow‐up (approximately 7 to 10 days after the last dose). These PK blood samples were taken after dosing (1, 2, 4, 6, 8, 12, and 24 hours) on day 1; before dosing on days 4, 6, 8, and 10; and after dosing (1, 2, 4, 6, 8, 12, 24, 72, and 96 hours) on day 14. The following additional PK blood samples were also taken: cohort C, before dosing on day 5; and cohorts D and E, before dosing on day 12. Urine samples were obtained from fractions collected over 6‐ or 12‐hour periods after dosing on days –1, 1, 2, 13, 14, and 15; samples obtained on days –1 and 13 were for cytochrome P450 (CYP) induction analysis only. In study 2, blood samples (2 mL) were obtained on days 1, 2, 5, 7, 10, 14, 15, 17, and 20 and at follow‐up (approximately 21 days after end of study medication administration). Blood samples were taken before dosing and at 1, 2, 4, 6, 8, 12, and 24 hours after drug administration on days 1 and 14 and before dosing on other sampling days.\n(§4) GLPG1205 plasma concentrations were determined using a validated liquid chromatography with tandem mass spectrometry method. After a protein precipitation with methanol, a chromatographic separation was performed on a Kinetex C18 column (50×3.0 mm, 2.6 μm; Phenomenex, Torrance, California) set at 40°C by using a Nexera high‐performance liquid chromatography (HPLC) system (Shimadzu, Kyoto, Japan) or an Infinity HPLC system (Agilent Technologies, Diegem, Belgium) in isocratic elution mode. A QTRAP6500, QTRAP4000, or API4000 mass spectrometer (AB Sciex, Nieuwerkerk aan den Ijssel, The Netherlands) equipped with a TurboIonSpray probe operated in the multiple reaction monitoring in positive mode was used for quantification. The calibration curves in plasma were linear over the range of 1 to 1000 ng/mL with 1/x^2 as weighting factor. The limit of quantification of the assay in the plasma samples was set at 1 ng/mL.\n(§5) PK calculations were performed using Phoenix WinNonlin 6.2 (Pharsight Corporation, Palo Alto, California). […] AUC0‐inf was calculated from the area under the plasma concentration‐time curve from time 0 until the time corresponding with the last observed quantifiable concentration + Ct/λz, where Ct was the last observed quantifiable concentration and λz the first‐order terminal rate constant. […]"}, "[3]": {"test": "Study 2 part 2: pharmacokinetics with 250-mg loading dose then 50 mg once daily", "assay_type": "in vivo, human", "experimental": "as §1, §2, §3, §4, §5"}, "[4]": {"conditions": "50 mg once daily, cohort A 65-74 y, day 14, mean (CV%), N = 4"}, "[5]": {"conditions": "50 mg once daily, cohort A 65-74 y, day 1, mean (CV%)"}, "[6]": {"conditions": "50 mg once daily, cohort A 65-74 y, day 14, mean (CV%)"}, "[7]": {"conditions": "50 mg once daily, cohort B ≥75 y, day 1, mean (CV%)"}, "[8]": {"conditions": "50 mg once daily, cohort B ≥75 y, day 14, mean (CV%)"}, "[9]": {"conditions": "50 mg once daily, cohort C 18-50 y, day 1, mean (CV%)"}, "[10]": {"conditions": "50 mg once daily, cohort C 18-50 y, day 14, mean (CV%)"}}, "note": "“Also recorded” adds a separate entry of the source.", "data": [{"smiles": "O=c1nc(OC[C@@H]2COCCO2)cc2n1CCc1cc(C#CC3CC3)ccc1-2", "note": "[GLPG1205, 9‐cyclopropylethynyl‐2‐((S)‐1‐[1,4]dioxan‐2‐ylmethoxy)‐6,7‐dihydropyrimido[6,1‐a]isoquinolin‐4‐one]", "values": [{"measurement": "induction of CYP1A2", "setting": "[1]", "result": "weak induction"}, {"measurement": "effect of age on GLPG1205 exposure", "setting": "[2]; 50 mg once daily for 14 days, 3 age groups", "result": "Age did not affect GLPG1205 exposure; also recorded: age has no effect on GLPG1205 exposure; also recorded: Age had no effect on the PK"}, {"measurement": "Rac (accumulation ratio)", "setting": "[2]; 50 mg once daily, cohort A 65-74 y, AUC0-24h day 14/day 1 (Table 5A)", "result": "6.16 (0.74)"}, {"measurement": "AUC0–inf", "setting": "[2]; [4]", "result": "338 (26.0) ^N = 4 μg • h/mL"}, {"measurement": "Rac (accumulation ratio)", "setting": "[2]; 50 mg once daily, cohort B ≥75 y, AUC0-24h day 14/day 1", "result": "5.77 (1.34)"}, {"measurement": "Rac (accumulation ratio)", "setting": "[2]; 50 mg once daily, cohort C 18-50 y, AUC0-24h day 14/day 1", "result": "5.02 (1.66)"}, {"measurement": "Tmax", "setting": "[2]; 50 mg once daily for 14 days, all 3 age groups", "result": "2 to 3", "unit": "h"}, {"measurement": "Cmax", "setting": "[2]; [5]", "result": 557, "unit": "ng/mL"}, {"measurement": "AUC(0-t)", "setting": "[2]; [5]", "result": 8920, "unit": "ng·h/mL"}, {"measurement": "concentration at 24 h", "setting": "[2]; [5]", "result": 334, "unit": "ng/mL"}, {"measurement": "Cmax", "setting": "[2]; [6]", "result": 2750, "unit": "ng/mL"}, {"measurement": "AUC(0-inf)", "setting": "[2]; [4]", "result": 338000, "unit": "ng·h/mL"}, {"measurement": "AUC(0-t)", "setting": "[2]; [6]", "result": 54200, "unit": "ng·h/mL"}, {"measurement": "concentration at 24 h", "setting": "[2]; [6]", "result": 2440, "unit": "ng/mL"}, {"measurement": "half-life", "setting": "[2]; [6]", "result": 71.9, "unit": "h"}, {"measurement": "Cmax", "setting": "[2]; [7]", "result": 440, "unit": "ng/mL"}, {"measurement": "AUC(0-t)", "setting": "[2]; [7]", "result": 6900, "unit": "ng·h/mL"}, {"measurement": "concentration at 24 h", "setting": "[2]; [7]", "result": 290, "unit": "ng/mL"}, {"measurement": "Cmax", "setting": "[2]; [8]", "result": 1960, "unit": "ng/mL"}, {"measurement": "AUC(0-inf)", "setting": "[2]; 50 mg once daily, cohort B ≥75 y, day 14, mean (CV%), N = 4", "result": 236000, "unit": "ng·h/mL"}, {"measurement": "AUC(0-t)", "setting": "[2]; [8]", "result": 39300, "unit": "ng·h/mL"}, {"measurement": "concentration at 24 h", "setting": "[2]; [8]", "result": 1820, "unit": "ng/mL"}, {"measurement": "half-life", "setting": "[2]; [8]", "result": 64.5, "unit": "h"}, {"measurement": "Tmax", "setting": "[2]; 50 mg once daily, cohort B ≥75 y, day 14, median (minimum-maximum)", "result": 3, "unit": "h"}, {"measurement": "Cmax", "setting": "[2]; [9]", "result": 476, "unit": "ng/mL"}, {"measurement": "AUC(0-t)", "setting": "[2]; [9]", "result": 7740, "unit": "ng·h/mL"}, {"measurement": "concentration at 24 h", "setting": "[2]; [9]", "result": 301, "unit": "ng/mL"}, {"measurement": "Cmax", "setting": "[2]; [10]", "result": 1950, "unit": "ng/mL"}, {"measurement": "AUC(0-inf)", "setting": "[2]; 50 mg once daily, cohort C 18-50 y, day 14, mean (CV%), N = 5", "result": 194000, "unit": "ng·h/mL"}, {"measurement": "AUC(0-t)", "setting": "[2]; [10]", "result": 37700, "unit": "ng·h/mL"}, {"measurement": "concentration at 24 h", "setting": "[2]; [10]", "result": 1590, "unit": "ng/mL"}, {"measurement": "half-life", "setting": "[2]; [10]", "result": 56, "unit": "h"}, {"measurement": "steady-state exposure with loading dose vs cohort A without", "setting": "[3]; 250-mg loading dose + 13 days 50 mg once daily vs 14 days 50 mg once daily", "result": "no difference in steady‐state exposure"}, {"measurement": "quantifiability in plasma after last dose", "setting": "[3]; 144 hours after the last dose on day 14, all subjects", "result": "quantifiable in plasma up to day 20"}, {"measurement": "time of maximal mean GLPG1205 concentration", "setting": "[3]; after 250-mg loading dose on day 1", "result": 12, "unit": "hours after dosing"}, {"measurement": "day by which steady state in plasma concentration was reached", "setting": "[3]; after the loading dose of 250 mg", "result": "≤ 2", "unit": "days"}, {"measurement": "Rac", "setting": "[3]; cohort D 65-74 y, 250-mg loading dose then 50 mg once daily, day 14, mean (CV%)", "result": "1.35 (22.8)"}, {"measurement": "Rac point estimate (CI), cohort D vs cohort A", "setting": "[3]; day 14, ratio of cohort D relative to cohort A expressed as a percentage", "result": "<.0001 22.11 (18.46‐26.48)"}, {"measurement": "subjects with GLPG1205 below the limit of quantification", "setting": "[3]; follow-up visit day 35, 504 hours after the last dose", "result": "5 of 8"}, {"measurement": "Cmax", "setting": "[3]; human, plasma, oral, cohort D 65-74 y, 250-mg loading dose then 50 mg once daily, day 14, mean (CV%)", "result": 2630, "unit": "ng/mL"}, {"measurement": "AUC(0-inf)", "setting": "[3]; human, plasma, oral, cohort D 65-74 y, 250-mg loading dose then 50 mg once daily, day 14, mean (CV%), N = 6", "result": 250000, "unit": "ng·h/mL"}, {"measurement": "half-life", "setting": "[3]; human, plasma, oral, cohort D 65-74 y, 250-mg loading dose then 50 mg once daily, day 14, mean (CV%), N = 7, read-out: t1/2,λz (converted)", "result": 55.4, "unit": "h"}, {"measurement": "AUC(0-t)", "setting": "[3]; human, plasma, oral, cohort D 65-74 y, 250-mg loading dose then 50 mg once daily, day 14, mean (CV%), read-out: AUC0–24h", "result": 53700, "unit": "ng·h/mL"}, {"measurement": "concentration at 24 h", "setting": "[3]; human, plasma, oral, cohort D 65-74 y, 250-mg loading dose then 50 mg once daily, day 14, mean (CV%), read-out: C24h", "result": 2360, "unit": "ng/mL"}, {"measurement": "concentration at 504 h", "setting": "[3]; human, plasma, oral, day 35, 504 hours after the last dose, subjects in whom still quantifiable, read-out: plasma GLPG1205 level at follow-up", "result": "2.01 to 21.6", "unit": "ng/mL"}, {"measurement": "time to reach steady-state exposure", "setting": "[3]; single 250-mg loading dose", "result": 1, "unit": "days"}]}]}
